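Briefly, cells in 96-well plates were exposed to five compound concentrations for 48 h, and endpoints were estimated by linear interpolation. At the TGI there is no net growth.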
Assays:
Assay in all cases: inhibition of tumour cell growth, NCI panel, 48 h
[1] = system: SN12C renal
[2] = system: M14 melanoma
[3] = system: SNB-75 CNS
[4] = system: NCI-H23 lung
[5] = system: KM20L2 colon
[6] = system: A498 renal
[7] = system: MALME-3M melanoma
[8] = system: SK-MEL-28 melanoma
[9] = system: HOP-62 NSCLC
[10] = system: TK-10 renal
[11] = system: LOX IMVI melanoma
[12] = system: OVCAR-3 ovarian
[13] = system: UO-31 renal
[14] = system: HCT-116 colon
[15] = system: HL-60(TB) leukemia
[16] = system: SF-268 CNS
[17] = system: SR leukemia
[18] = system: 786-0 renal
[19] = system: SW-620 colon
[20] = system: SNB-19 CNS
[21] = system: DMS 114 small cell lung
[22] = system: A549 NSCLC
[23] = system: RPMI-8226 leukemia
[24] = system: EKVX NSCLC
[25] = system: CCRF-CEM leukemia
[26] = system: HT29 colon
[27] = system: UACC-62 melanoma
[28] = system: NCI-H226 lung
[29] = system: HCC-2998 colon
[30] = system: SK-MEL-2 melanoma
[31] = system: DMS 273 small cell lung
[32] = system: OVCAR-8 ovarian
[33] = system: IGROV1 ovarian
[34] = system: NCI-H460 lung
[35] = system: RXF 393 renal
[36] = system: DLD-1 colon
[37] = system: K-562 leukemia
[38] = system: UACC-257 melanoma
[39] = system: COLO 205 colon
[40] = system: SF-539 CNS
[41] = system: LXFL 529 NSCLC
[42] = system: SK-MEL-5 melanoma
[43] = system: ACHN renal
[44] = system: U251 CNS
[45] = system: SF-295 CNS
[46] = system: HCT-15 colon
[47] = system: M19-MEL melanoma
[48] = system: MOLT-4 leukemia
[49] = system: OVCAR-4 ovarian
[50] = system: NCI-H522 lung
[51] = system: SNB-78 CNS
[52] = system: KM12 colon
[53] = system: HOP-92 NSCLC
[54] = system: CAKI-1 renal
[55] = system: SK-OV-3 ovarian
[56] = system: OVCAR-5 ovarian

Measured: TGI

CC(C)C1CNC2N1C(=O)C2(C)OCc1ccccc1 (stereo not drawn)
not listed: [50] | [51] | [52] | [53] | [54] | [55] | [56]
> 100 µM: all other assays above

ClCCC[Si]12OCCN(CCO1)CCO2
not listed: [2] | [5] | [9] | [11] | [46] | [49]
> 100 µM: all other assays above

Cn1c(=O)c2nc3c4ccccc4c(=O)n(C)c3nc2n(C)c1=O
not listed: [2] | [6] | [9] | [11] | [15] | [25] | [31] | [34] | [36] | [49] | [50] | [54]
> 100 µM: all other assays above
